Values after ≈ are worked out from the molar mass of the structure shown. Read-outs that look alike come from different tables or passages of the source.
Test: Saturation solubility
Type: physicochemical
Experimental: For 48 h, a known excess of the samples (etoricoxib solid dispersions, physical mixtures, and pure etoricoxib) containing 10 mg of etoricoxib was mixed with 10 mL of phosphate buffer (pH = 6.8) and 0.1 N HCL (pH = 1.2) and placed in a constant-temperature rotating water bath (Gyromax—Frederick, MD, USA) set to 50 rpm (37 ± 0.5 °C). The samples were then filtered, diluted, and analyzed at 233 nm using a UV-VIS spectrophotometer (Shimadzu). The concentration of etoricoxib was then estimated. The experiment was carried out three times.

- solubility at 48 h (0.1 N HCl, pH 1.2, pure drug, 0.1 N HCL pH 1.2, 37 °C, read-out: Saturation solubility of pure etoricoxib in 0.1 N HCL pH(1.2)): 73.8 µg/mL (≈ 206 µM)
- solubility at 48 h (phosphate buffer, pH 6.8, pure drug, phosphate buffer pH 6.8, 37 °C, read-out: Saturation solubility of pure etoricoxib in Phosphate buffer pH(6.8)): 71.1 µg/mL (≈ 198 µM)
- Saturation solubility of pure etoricoxib in Phosphate buffer pH(6.8) (pure drug, phosphate buffer pH 6.8, 37 °C, 48 h): 71.12 μg/mL ± 1.23
SMILES: Cc1ccc(-c2ncc(Cl)cc2-c2ccc(S(C)(=O)=O)cc2)cn1 [Pure Etoricoxib, 5-chloro-6’-methyl-3-[4-(methylsulfonyl)phenyl]-2,3-bipyridine]

Reference: PMC10525456, “A Comparative Study on Cyclodextrin Derivatives in Improving Oral Bioavailability of Etoricoxib as a Model Drug: Formulation and Evaluation of Solid Dispersion-Based Fast-Dissolving Tablets” (Biomedicines, 2023)
